Patent US10280170B2, “Substituted 4,5,6,7-tetrahydro-pyrazolo[1,5-a]pyrazine derivatives and 5,6,7,8-tetrahydro-4H-pyrazolo[1,5-a][1,4]diazepine derivatives as Ros1 inhibitors” (Janssen Pharmaceutica NV, priority 2014, dated 2019)
Where two headings read alike, the source gives them in different places.

Experiments:
Ros1 enzyme = biological target: T1, Ros1 enzyme (Homo sapiens, UniProt P08922); experiment: Ros1 enzymatic assay; type: biochemical; conditions: Ros1 enzymatic assay; read-out: ROS1 pIC50 (converted)
T1 construct: 0.5 μg/ml Ros1 enzyme
T1 sequence (P08922 28-2347): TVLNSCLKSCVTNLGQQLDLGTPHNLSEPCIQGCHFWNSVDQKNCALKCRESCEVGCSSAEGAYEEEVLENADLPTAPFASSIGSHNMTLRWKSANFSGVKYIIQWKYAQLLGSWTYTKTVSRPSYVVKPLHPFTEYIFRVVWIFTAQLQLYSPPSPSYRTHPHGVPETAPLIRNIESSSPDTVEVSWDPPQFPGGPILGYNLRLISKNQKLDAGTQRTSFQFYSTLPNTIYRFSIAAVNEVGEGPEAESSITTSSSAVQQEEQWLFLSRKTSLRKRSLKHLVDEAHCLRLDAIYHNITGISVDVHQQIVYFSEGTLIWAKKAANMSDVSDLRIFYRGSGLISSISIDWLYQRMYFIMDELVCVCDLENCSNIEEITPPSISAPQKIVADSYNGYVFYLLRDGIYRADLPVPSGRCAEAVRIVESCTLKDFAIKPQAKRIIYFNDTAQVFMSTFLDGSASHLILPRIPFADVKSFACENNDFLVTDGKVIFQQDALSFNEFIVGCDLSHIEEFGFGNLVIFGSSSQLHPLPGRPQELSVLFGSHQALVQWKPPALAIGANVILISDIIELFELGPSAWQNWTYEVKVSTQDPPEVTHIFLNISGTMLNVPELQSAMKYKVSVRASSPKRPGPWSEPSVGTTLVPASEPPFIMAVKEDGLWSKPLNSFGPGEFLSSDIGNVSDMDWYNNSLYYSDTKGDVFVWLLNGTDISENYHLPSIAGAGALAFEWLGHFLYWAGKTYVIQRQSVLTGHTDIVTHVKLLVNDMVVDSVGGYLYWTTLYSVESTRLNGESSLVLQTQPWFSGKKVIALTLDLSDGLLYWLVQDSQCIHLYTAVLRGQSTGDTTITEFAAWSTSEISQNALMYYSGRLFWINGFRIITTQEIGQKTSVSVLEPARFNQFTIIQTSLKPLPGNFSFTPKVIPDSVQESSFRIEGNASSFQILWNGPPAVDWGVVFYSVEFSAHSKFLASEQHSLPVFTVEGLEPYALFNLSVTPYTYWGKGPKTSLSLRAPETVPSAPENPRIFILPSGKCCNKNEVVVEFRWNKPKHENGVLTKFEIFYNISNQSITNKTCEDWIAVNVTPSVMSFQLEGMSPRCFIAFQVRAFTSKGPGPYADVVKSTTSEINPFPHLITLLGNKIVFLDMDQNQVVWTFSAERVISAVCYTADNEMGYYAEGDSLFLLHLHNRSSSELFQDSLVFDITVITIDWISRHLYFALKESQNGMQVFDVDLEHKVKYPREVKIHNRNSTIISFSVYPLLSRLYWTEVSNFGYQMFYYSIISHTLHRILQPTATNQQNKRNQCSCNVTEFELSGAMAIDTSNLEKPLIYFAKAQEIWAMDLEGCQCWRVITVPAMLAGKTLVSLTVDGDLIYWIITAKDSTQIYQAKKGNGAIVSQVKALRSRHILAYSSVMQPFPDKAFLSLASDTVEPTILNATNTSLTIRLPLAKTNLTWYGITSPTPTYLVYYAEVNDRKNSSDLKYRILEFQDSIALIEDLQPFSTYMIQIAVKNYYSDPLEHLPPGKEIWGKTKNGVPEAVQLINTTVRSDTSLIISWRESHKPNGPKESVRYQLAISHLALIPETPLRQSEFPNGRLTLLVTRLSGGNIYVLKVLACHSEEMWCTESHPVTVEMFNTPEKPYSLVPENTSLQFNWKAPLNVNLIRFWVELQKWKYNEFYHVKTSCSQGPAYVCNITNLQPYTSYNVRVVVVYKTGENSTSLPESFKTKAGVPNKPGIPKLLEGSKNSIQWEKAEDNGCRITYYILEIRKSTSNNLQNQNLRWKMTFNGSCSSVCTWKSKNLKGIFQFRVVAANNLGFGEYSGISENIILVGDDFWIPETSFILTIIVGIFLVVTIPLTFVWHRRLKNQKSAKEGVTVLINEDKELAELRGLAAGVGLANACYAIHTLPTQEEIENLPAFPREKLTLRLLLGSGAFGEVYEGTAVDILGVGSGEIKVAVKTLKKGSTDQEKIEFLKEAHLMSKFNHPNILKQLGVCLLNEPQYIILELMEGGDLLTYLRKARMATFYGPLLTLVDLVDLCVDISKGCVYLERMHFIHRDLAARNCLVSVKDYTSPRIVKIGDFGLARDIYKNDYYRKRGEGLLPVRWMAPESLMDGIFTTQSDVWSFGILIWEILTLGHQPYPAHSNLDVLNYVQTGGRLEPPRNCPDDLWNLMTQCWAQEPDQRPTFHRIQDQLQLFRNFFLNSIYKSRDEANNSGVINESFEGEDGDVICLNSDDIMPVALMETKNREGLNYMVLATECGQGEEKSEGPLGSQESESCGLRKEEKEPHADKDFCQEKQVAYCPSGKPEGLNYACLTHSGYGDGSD
How it was run: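 Peptide phosphorylation by Ros1 is measured by 33P transfer from 20 μM ATP (as prepared in substrate mix) over 2 h at ambient temperature, pH 7.5 with Mg2+.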

[1] = biological target: T2, Ba/F3 cells containing Ros1 wild-type protein (Homo sapiens, UniProt P08922, cells depend on it, form not given); experiment: Ba/F3-Ros1 cell proliferation assay, wild-type Ros1; type: cell-based, murine; conditions: without IL-3
T2 construct: The background only speaks of 'a number of different unrelated proteins' and names SLC34A2-ROS1 for HCC78 cells
T2 sequence (P08922 whole entry, stated change not applied): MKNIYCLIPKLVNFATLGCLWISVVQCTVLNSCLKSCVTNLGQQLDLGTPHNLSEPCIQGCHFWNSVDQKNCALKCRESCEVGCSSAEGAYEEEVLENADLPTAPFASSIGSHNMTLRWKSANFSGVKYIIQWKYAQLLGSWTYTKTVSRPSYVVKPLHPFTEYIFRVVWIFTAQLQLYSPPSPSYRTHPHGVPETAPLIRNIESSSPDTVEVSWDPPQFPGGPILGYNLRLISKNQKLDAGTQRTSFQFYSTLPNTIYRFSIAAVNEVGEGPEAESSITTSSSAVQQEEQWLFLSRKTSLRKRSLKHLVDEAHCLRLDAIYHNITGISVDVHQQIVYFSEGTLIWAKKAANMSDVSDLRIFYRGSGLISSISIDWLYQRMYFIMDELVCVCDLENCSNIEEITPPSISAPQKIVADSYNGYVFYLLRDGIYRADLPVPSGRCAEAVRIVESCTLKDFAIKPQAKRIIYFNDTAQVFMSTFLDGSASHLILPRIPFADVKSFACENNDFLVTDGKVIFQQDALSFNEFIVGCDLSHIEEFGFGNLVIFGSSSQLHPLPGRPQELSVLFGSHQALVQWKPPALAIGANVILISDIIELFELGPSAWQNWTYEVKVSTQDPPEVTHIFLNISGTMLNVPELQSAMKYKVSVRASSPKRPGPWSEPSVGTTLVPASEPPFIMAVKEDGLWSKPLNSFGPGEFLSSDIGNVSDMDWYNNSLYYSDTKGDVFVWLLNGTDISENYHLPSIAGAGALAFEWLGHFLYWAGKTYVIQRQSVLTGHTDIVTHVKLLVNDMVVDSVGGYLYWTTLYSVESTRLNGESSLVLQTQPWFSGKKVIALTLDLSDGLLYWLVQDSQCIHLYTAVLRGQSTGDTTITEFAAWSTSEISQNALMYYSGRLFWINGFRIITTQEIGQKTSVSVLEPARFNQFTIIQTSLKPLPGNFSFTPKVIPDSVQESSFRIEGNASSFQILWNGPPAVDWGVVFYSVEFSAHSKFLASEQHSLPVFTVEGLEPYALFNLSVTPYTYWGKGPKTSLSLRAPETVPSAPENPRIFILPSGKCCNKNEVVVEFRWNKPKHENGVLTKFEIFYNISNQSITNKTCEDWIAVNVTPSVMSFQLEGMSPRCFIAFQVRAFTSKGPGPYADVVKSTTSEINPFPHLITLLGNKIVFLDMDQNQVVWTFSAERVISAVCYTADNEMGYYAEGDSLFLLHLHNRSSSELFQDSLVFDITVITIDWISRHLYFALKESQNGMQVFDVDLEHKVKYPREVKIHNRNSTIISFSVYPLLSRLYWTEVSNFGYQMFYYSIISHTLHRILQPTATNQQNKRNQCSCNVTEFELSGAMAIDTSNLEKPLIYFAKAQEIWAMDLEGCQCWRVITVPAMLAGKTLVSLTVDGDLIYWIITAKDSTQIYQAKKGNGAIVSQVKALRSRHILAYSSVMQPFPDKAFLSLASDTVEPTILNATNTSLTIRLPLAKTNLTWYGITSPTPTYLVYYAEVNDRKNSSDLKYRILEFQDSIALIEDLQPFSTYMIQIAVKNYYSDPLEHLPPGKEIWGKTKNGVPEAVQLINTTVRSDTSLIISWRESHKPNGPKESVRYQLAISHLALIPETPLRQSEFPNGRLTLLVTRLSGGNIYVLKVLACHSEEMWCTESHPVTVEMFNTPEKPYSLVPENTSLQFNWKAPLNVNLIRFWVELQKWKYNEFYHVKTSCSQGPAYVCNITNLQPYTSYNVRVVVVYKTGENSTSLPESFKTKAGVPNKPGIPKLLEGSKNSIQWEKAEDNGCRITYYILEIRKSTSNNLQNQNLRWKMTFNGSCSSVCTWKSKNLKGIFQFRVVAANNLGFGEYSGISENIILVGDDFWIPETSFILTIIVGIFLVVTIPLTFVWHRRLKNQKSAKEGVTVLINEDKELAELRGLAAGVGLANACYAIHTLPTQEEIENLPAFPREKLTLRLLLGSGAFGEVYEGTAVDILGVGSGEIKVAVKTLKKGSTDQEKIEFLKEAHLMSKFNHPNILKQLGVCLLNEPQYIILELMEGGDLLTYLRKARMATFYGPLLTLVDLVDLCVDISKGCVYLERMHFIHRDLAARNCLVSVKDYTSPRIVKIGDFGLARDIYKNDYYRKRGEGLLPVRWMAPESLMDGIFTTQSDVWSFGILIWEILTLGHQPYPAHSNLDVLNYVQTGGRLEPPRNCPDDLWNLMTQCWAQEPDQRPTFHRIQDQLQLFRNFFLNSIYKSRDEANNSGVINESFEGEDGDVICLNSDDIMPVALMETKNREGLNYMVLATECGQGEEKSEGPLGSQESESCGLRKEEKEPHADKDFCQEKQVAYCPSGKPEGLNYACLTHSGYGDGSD
How it was run: (§1)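 20000 Ba/F3-Ros1 cells/well (WT, L2026M, G2032R), RPMI-1640 phenol red free + 10% FBS + 2 mM Gln, cpds from DMSO; 24 h, 37 °C, 5% CO2. Alamar Blue 4 h, RFU ex540/em590.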

[2] = biological target: Ba/F3 cells containing Ros1 with a mutation at the gatekeeper residue (L2026M) (Homo sapiens, UniProt P08922, L2026M, cells depend on it, form not given); experiment: Ba/F3-Ros1 cell proliferation assay, L2026M gatekeeper mutant; type: cell-based, murine; conditions: without IL-3
Ba/F3 cells containing Ros1 with a mutation at the gatekeeper residue (L2026M), sequence (P08922 whole entry L2026M, form open): as the sequence (P08922 whole entry, stated change not applied) above, with L2026M counted along it
How it was run: as §1

[3] = tested on: Ba/F3 cells containing Ros1 wild-type protein + IL-3; experiment: Ba/F3-Ros1 cell proliferation counter-screen, wild-type protein in the presence of 10 ng/ml murine IL-3; type: cell-based; conditions: Mus musculus, BaF3, 24 h, read-out: BaF3-ROS1 + IL3 pIC50 (converted)
How it was run: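 Proliferation of IL-3-supplemented (10 ng/ml, murine) Ba/F3 cells bearing wild-type Ros1 is measured after 24 h compound treatment. Alamar Blue conversion over 4 h gives fluorescence at 590 nm.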

[4] = tested on: HCC78 non-small cell lung cancer cells; experiment: HCC78 cell proliferation assay; type: cell-based; conditions: for EC50: Homo sapiens, HCC78, 96 h, read-out: HCC-78 PROL pEC50 (converted)
How it was run: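 HCC78 NSCLC cells (~1000/well) in RPMI-1640 with 10% FBS were treated 24 h after seeding and exposed to compound for 4 days at 37 °C. Viability was read by MTT, with absorbance at 538 nm after DMSO/glycine solubilization.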

[5] = counter-screen, wild-type, 10 ng/ml murine IL-3

SMILES | IC50 (Ros1 enzyme) [µM] | BaF3-ROS1-IL3 pIC50 [1] | Ba/F3 Ros1 L2026M (-IL-3) pIC50 [2] | CC50 [3] [µM] | EC50 [4] [µM] | melting point [°C] | CC50 [3, 5] [µM] | EC50 ([4]; HCC78 cells, 4 days, MTT) [µM] | HCC-78 PROL pEC50 ([4]; HCC78 cells, 4 days, MTT)
O=C1c2c(-c3ccc(OCc4ccc(OC(F)(F)F)cc4)cc3)c(-c3ccncc3)nn2CCN1CCO [Compound 117] | 0.126 | 7.0 | 6.9 | > 10 | 0.251 | 134 |  |  | 
CC(C)(C#N)c1ccc(COc2ccc(-c3c(-c4ccncc4)nn4c3C(=O)N(CCO)CC4)cc2)cc1 [Compound 122] | 0.126 | 6.9 | 7.1 | > 10 | 0.0631 | 199 |  |  | 
N#CC1(c2ccc(COc3ccc(-c4c(-c5ccncc5)nn5c4C(=O)NCC5)cc3)cc2)CC1 [Compound 123] | 0.0398 | 7.4 | 7.1 | > 10 | 0.398 | 260 |  |  | 
COCC(C)(C)c1ccc(COc2ccc(-c3c(-c4ccncc4)nn4c3C(=O)NCC4)cc2)cc1 [Compound 126] | 0.2 | 6.9 | 6.6 | > 10 | 1.26 | 212 |  |  | 
O=C1c2c(-c3ccc(OCc4ccc(C5CC5)cc4)cc3)c(-c3ccncc3)nn2CCN1CCO [Compound 129] | 0.0631 | 7.4 | 7.0 | > 10 | 0.1 | 194 |  |  | 
CC(O)CN1CCn2nc(-c3ccncc3)c(-c3ccc(OCc4ccc(C5CC5)cc4)cc3)c2C1=O (stereo not drawn) [Compound 134] | 0.0794 | 7.3 | 7.0 |  |  | 196 | > 10 | 0.2 | 
O=C1c2c(-c3ccc(OCc4ccc(C5CC5)cc4F)cc3)c(-c3ccncc3)nn2CCN1CCO [Compound 136] | 0.0631 | 7.1 | 6.6 | > 10 | 0.316 | 183 |  |  | 
O=C1c2c(-c3ccc(OCc4ccc(C5CC5)c(F)c4)cc3)c(-c3ccncc3)nn2CCN1CCO [Compound 137] | 0.126 | 6.8 | 6.4 | > 10 | 0.398 | 185 |  |  | 
O=C1c2c(-c3ccc(OCc4ccc(C5CC5)nc4)cc3)c(-c3ccncc3)nn2CCN1CCO [Compound 139] | 0.126 | 6.8 | 6.0 | > 10 | 0.1 | 97 |  |  | 
CC(C)c1ccc(C(C)Oc2ccc(-c3c(-c4ccncc4)nn4c3C(=O)N(CCO)CC4)cc2)cc1 (stereo not drawn) [Compound 144] | 1.26 | 6.3 | 5.7 |  |  | 148 | > 10 |  | 5.0
CC(C)c1ccc(C(CN)Oc2ccc(-c3c(-c4ccncc4)nn4c3C(=O)NCC4)cc2)cc1 (stereo not drawn) [Compound 147] | 3.98 | 5.4 | 6.7 | 3.98 | 3.98 | 178 |  |  | 
CC(C)c1ccc(CC(=O)c2ccc(-c3c(-c4ccncc4)nn4c3C(=O)NCC4)cc2)cc1 [Compound 148] | 6.31 | 5.5 | 5.9 | > 10 | 1.58 | 259 |  |  | 
CC(C)c1ccc(COc2ccc(-c3c(-c4ccncc4F)nn4c3C(=O)NCC4)c(F)c2)cc1 [Compound 152] | 0.01 | 8.0 | 8.1 | > 10 | 0.0631 | 262 |  |  | 
CC(C)c1ccc(COc2ccc(-c3c(-c4ccncc4C#N)nn4c3C(=O)NCC4)cc2)cc1 [Compound 153] | 0.0398 | 7.5 | 6.8 | > 10 | 0.316 | 225 |  |  | 
CC(C)c1ccc(COc2ccc(-c3c(-c4ccncc4Cl)nn4c3C(=O)NCC4)cc2)cc1 [Compound 154] | 0.1 | 6.9 | 7.1 | > 10 | 0.316 | 207 |  |  | 
CC(C)c1ccc(COc2ccc(-c3c(-c4ccnc5[nH]ccc45)nn4c3C(=O)NCC4)cc2)cc1 [Compound 155] | 0.0316 | 7.8 | 7.5 | > 10 | 0.0794 | 266 |  |  | 
CC(C)c1ccc(COc2ccc(-c3c(-c4ccnc5[nH]ccc45)nn4c3C(=O)N(CCO)CC4)cc2)cc1 [Compound 156] | 0.0631 | 8.0 | 7.0 |  |  | 219 | > 10 | 0.02 | 
CC(C)c1ccc(COc2ccc(-c3c(-c4ccncn4)nn4c3C(=O)N(CC(O)CO)CC4)cc2)cc1 (stereo not drawn) [Compound 161] | 0.0501 | 7.1 | 6.7 |  |  | 209 | > 10 | 0.316 | 
O=C1c2c(-c3ccc(OCc4ccc(C5CC5)cc4)cc3)c(-c3ccncn3)nn2CCN1CCO [Compound 167] | 0.126 | 7.2 | 6.2 | > 10 | 0.501 | 170 |  |  | 
CC(C)c1ccc(COc2ccc(-c3c(-c4ccncc4)nn4c3CN(CC(=O)NCCO)CC4)cc2)cc1 [Compound 175] | 0.1 | 6.9 | 6.8 | 5.01 | 0.398 | 189 |  |  | 
CC(C)c1ccc(COc2ccc(-c3c(-c4ccncc4)nn4c3CN(CCO)CC4)cc2)cc1 [Compound 176] | 0.158 | 6.9 | 7.1 |  |  | 150 | > 10 | 0.0794 | 
CC(C)c1ccc(COc2ccc(-c3c(-c4ccncc4)nn4c3CN(CC(=O)N(C)C)CC4)cc2)cc1 [Compound 177] | 0.2 | 6.9 | 6.6 |  |  | 95 | > 10 | 0.398 | 
CC(O)CN1CCn2nc(-c3ccncc3)c(-c3ccc(OCc4ccc(C(C)C)cc4)cc3)c2C1 (stereo not drawn) [Compound 191] | 0.158 | 6.9 | 7.0 |  |  | 148 | > 10 | 0.501 | 
CC(C)c1ccc(COc2ccc(-c3c(-c4ccncc4)nn4c3C(=O)NC(CO)C4)cc2)cc1 (stereo not drawn) [Compound 193] | 0.0794 | 7.3 | 6.3 | > 10 | 0.2 | 254 |  |  | 
CNCC1Cn2nc(-c3ccncc3)c(-c3ccc(OCc4ccc(C(C)C)cc4)cc3)c2C(=O)N1 (stereo not drawn) [Compound 194] | 0.0794 | 6.6 | 6.2 | 6.31 | 0.501 | 230 |  |  | 
CC(C)c1ccc(COc2ccc(-c3c(-c4ccncc4)nn4c3C(=O)NC(CN(C)CCO)C4)cc2)cc1 (stereo not drawn) [Compound 195] | 0.126 | 6.7 | 7.0 |  |  | 193 | > 10 | 0.794 | 
CC(C)c1ccc(C2CCc3cc(-c4c(-c5ccncc5)nn5c4C(=O)NCC5)ccc3O2)cc1 (stereo not drawn) [Compound 199] | 0.2 | 7.1 | 7.5 | > 10 | 1.26 | 262 |  |  | 
CC(C)c1ccc(C2COc3cc(-c4c(-c5ccncc5)nn5c4C(=O)NCC5)ccc3O2)cc1 (stereo not drawn) [Compound 201] | 0.0251 | 7.8 | 7.4 |  |  | 290 | > 10 | 0.0398 | 
